Assay results taken from patent US10472341B2, “Bicyclic tetrahydrothiazepine derivatives useful for the treatment of neoplastic and/or infectious diseases” (APEIRON BIOLOGICS AG, priority 2015, dated 2019).
Counter-ions that a name gives are not always drawn. Like-named read-outs stand apart in the source and are kept apart here.

Legend:
[1] = test system: aCD3/aCD28-stimulated human CD4+-T-cells; assay: IL-2 production and activation markers in aCD3/aCD28 stimulated isolated human CD4+-T-cells; format: cell-based; conditions: IL-2 production at 3 μM compound
Experimental: • Buffy coat content was transferred to sterile plastic bottle and filled up to 480 ml with PBS, and distributed equally to 16×50 ml tubes (30 ml/tube) • Underlayed with ˜11 ml Lymphoprep and centrifuged 20 min (2200 rpm) • The interphase containing lymphocytes was taken off with transfer pipette, cells were washed twice with PBS and pooled to one tube to determine cell count (Coulter Diff ACT) Isolation of Immune Cell Subfractions from PBMCs by MACS • PBMCs were resuspended in MACS buffer (80 μl MACS-buffer/10^7 cells) and cells were isolated with Auto-MACS device using respective kits following manufacturer's recommendations TCR Stimulation and Measurement of T Cell Activation
Isolated T cells were plated in Xvivo medium at 1.5*10 ^5 cells per in 96 well culture plates and TCR-stimulated with anti-CD3/28 mAbs in the presence of compound as indicated. Cytokine production was determined at 24 h or 48 h following TCR stimulation in cell culture supernatants using commercially available ELISA kits (BD and eBioscience) as recommended by the manufacturer. T cell proliferation and CD25 expression (CD25-PC5 reagent purchased from Beckman Coulter) was determined by flow cytometry (Beckman-Coulter FC500) and analysed with Kaluza Software. For measurement of CD69 expression, isolated CD4 and CD8 T cells were plated in Xvivo medium at […] per in 96 well culture plates and TCR-stimulated with anti-CD3/28 mAbs in the presence of compound. CD69 expression was determined at 24 h following TCR stimulation by flow cytometry (CD4eF450, CD8APCeF780 and CD69-PC7 reagent purchased from eBioscience) and analysed with Kaluza Software.
Buffy coats were obtained from Austrian Red Cross, diluted 3 fold with PBS and layered onto an isotonic Ficoll separating solution d=1.077 g/m in 50 ml centrifuge tubes. The tubes were centrifuged at 914 g for 25 min at room temperature with the brakes off. The PBMC layer was removed and washed twice with ice-cold PBS. CD4 T cells were isolated using CD4 microbeads (Milteny) and the AutoMACS device following manufacturer's instructions.
Compound examples of the present invention were classified according to the following activity criteria and are listed in Table 4a: • Activity Class A: IL-2 production at 3 μM compound concentration >10 ng/mL • Activity Class B: IL-2 production at 3 μM compound concentration between 2-10 ng/mL • Activity Class C: IL-2 production at 3 μM compound concentration between 2-fold increase as compared to mean IL-2 production of stimulated cells in the absence of compounds and <2 ng/mL

[2] = test system: aCD3/aCD28-stimulated human PBMCs; assay: Cytokine production in aCD3/aCD28 stimulated human PBMCs; format: cell-based; conditions: PBMC, 18 h
Experimental: In order to determine the immune modulatory effect of compounds of compounds of the present invention in human PBMCs, compounds were assessed in the following assay set-up:
Buffy coats were obtained from a local hospital, diluted 3 fold with PBS and layered onto an isotonic Ficoll separating solution d=1.077 g/mL in 50 mL centrifuge tubes. The tubes were centrifuged at 914 g for 25 min at room temperature with the brakes off. The PBMC layer was removed and washed twice with ice-cold PBS. Erythrocytes were lysed by addition of ddH2O and cells were resuspended in X-Vivo15 (Lonza).
1e6 cells/mL were stimulated with soluble anti CD3/CD28 antibodies (1 μg/mL both, clones OKT3 and 28.2) in the presence of described compounds. Cells were incubated for 18 h at 37° C., 5% CO2. Assay plates were centrifuged at 400 g for 5 min and supernatants harvested. Cytokine concentration in tissue culture supernatants were determined with MSD or HTRF kits (MSD and Cisbio), according to manufacturer's instructions.

[3] = enhancement of IFN-γ production, read-out: Activity Class IFN-γ
[4] = enhancement of IL-2 production, read-out: Activity Class IL-2

CCCCNC(=O)c1ccc2c(c1)N(Cc1ccc(N3CCOCC3)cc1)C(=O)[C@@H](N)CS2.Cl [Example 13, (3R)-3-amino-N-butyl-5-{[4-(morpholin-4-yl)phenyl]methyl}-4-oxo-2,3,4,5-tetrahydro-1,5-benzothiazepine-7-carboxamide hydrochloride]
Activity Class CD4+ [1]: C (IL-2 production at 3 μM compound concentration between 2-fold increase as compared to mean IL-2 production of stimulated cells in the absence of compounds and <2 ng/mL)

N[C@H]1CS(=O)(=O)c2cc(F)c(C(=O)NC3CCOCC3)cc2N(Cc2ccc(Cl)cc2)C1=O [Example 144, (3R)-3-amino-5-[(4-chlorophenyl)methyl]-8-fluoro-N-(oxan-4-yl)-1,1,4-trioxo-2,3,4,5-tetrahydro-1λ^6,5-benzothiazepine-7-carboxamide]
EC50 [2, 3]: 1.58 to 5.01 µM | EC50 [2, 4]: > 5.01 µM

Cc1ccc(CNC(=O)c2ccc3c(c2)N(Cc2ccc(Cl)cc2)C(=O)[C@@H](N)CS3(=O)=O)cn1 [Example 168, (3R)-3-amino-5-[(4-chlorophenyl)methyl]-N-[(6-methylpyridin-3-yl)methyl]-1,1,4-trioxo-2,3,4,5-tetrahydro-1λ^6,5-benzothiazepine-7-carboxamide]
EC50 [2, 3]: 1.58 to 5.01 µM | EC50 [2, 4]: > 5.01 µM

C#CCCNC(=O)c1cc2c(cc1F)S(=O)(=O)C[C@H](N)C(=O)N2Cc1ccc(Cl)cc1 [Example 173, (3R)-3-amino-N-(but-3-yn-1-yl)-5-[(4-chlorophenyl)methyl]-8-fluoro-1,1,4-trioxo-2,3,4,5-tetrahydro-1λ^6,5-benzothiazepine-7-carboxamide]
EC50 [2, 3]: 1.58 to 5.01 µM | EC50 [2, 4]: > 5.01 µM

N[C@H]1CS(=O)(=O)c2ccc(C(=O)N[C@@H]3CC3(F)F)cc2N(Cc2ccccc2)C1=O [Example 167, (3R)-3-amino-5-benzyl-N-[(1R)-2,2-difluorocyclopropyl]-1,1,4-trioxo-2,3,4,5-tetrahydro-1λ^6,5-benzothiazepine-7-carboxamide]
EC50 [2, 3]: > 5.01 µM | EC50 [2, 4]: > 5.01 µM

COc1ccc(CNC(=O)c2ccc3c(c2)N(Cc2ccc(Cl)cc2)C(=O)[C@@H](N)CS3(=O)=O)cn1 [Example 177, (3R)-3-amino-5-[(4-chlorophenyl)methyl]-N-[(6-methoxypyridin-3-yl)methyl]-1,1,4-trioxo-2,3,4,5-tetrahydro-1λ^6,5-benzothiazepine-7-carboxamide]
EC50 [2, 3]: < 1.58 µM | EC50 [2, 4]: 1.58 to 5.01 µM

CC(C)NC(=O)c1ccc2c(c1)N(Cc1ccc(Cl)cc1)C(=O)[C@@H](N)CS2 [Example 61, (3R)-3-amino-5-[(4-chlorophenyl)methyl]-4-oxo-N-(propan-2-yl)-2,3,4,5-tetrahydro-1,5-benzothiazepine-7-carboxamide hydrochloride]
EC50 [2, 3]: 1.58 to 5.01 µM | EC50 [2, 4]: > 5.01 µM

N[C@H]1CS(=O)(=O)c2ccc(C(=O)NC3CC(F)(F)C3)cc2N(Cc2ccccc2F)C1=O [Example 148, (3R)-3-amino-N-(3,3-difluorocyclobutyl)-5-[(2-fluorophenyl)methyl]-1,1,4-trioxo-2,3,4,5-tetrahydro-1λ^6,5-benzothiazepine-7-carboxamide]
EC50 [2, 3]: 1.58 to 5.01 µM | EC50 [2, 4]: > 5.01 µM

Cc1nc(-c2ccc(CN3C(=O)[C@@H](N)CS(=O)(=O)c4ccc(C(=O)NCCCC(F)(F)F)cc43)cc2)no1 [Example 119, (3R)-3-amino-5-{[4-(5-methyl-1,2,4-oxadiazol-3-yl)phenyl]methyl}-1,1,4-trioxo-N-(4,4,4-trifluorobutyl)-2,3,4,5-tetrahydro-1λ^6,5-benzothiazepine-7-carboxamide hydrochloride]
EC50 [2, 3]: 1.58 to 5.01 µM | EC50 [2, 4]: > 5.01 µM

N[C@H]1CS(=O)(=O)c2cc(F)c(C(=O)NCc3ccc(F)cc3)cc2N(Cc2nnc(C3CC3)s2)C1=O [Example 138, (3R)-3-amino-5-[(5-cyclopropyl-1,3,4-thiadiazol-2-yl)methyl]-8-fluoro-N-[(4-fluorophenyl)methyl]-1,1,4-trioxo-2,3,4,5-tetrahydro-1λ^6,5-benzothiazepine-7-carboxamide hydrochloride]
EC50 [2, 3]: 1.58 to 5.01 µM | EC50 [2, 4]: > 5.01 µM

COc1ccc(CN2C(=O)[C@@H](N)CS(=O)(=O)c3cc(F)c(C(=O)NC4CC4(F)F)cc32)cc1C(F)(F)F (stereo partly drawn) [Example 117, (3R)-3-amino-N-(2,2-difluorocyclopropyl)-8-fluoro-5-{[4-methoxy-3-(trifluoromethyl)phenyl]methyl}-1,1,4-trioxo-2,3,4,5-tetrahydro-1λ^6,5-benzothiazepine-7-carboxamide hydrochloride]
EC50 [2, 3]: < 1.58 µM | EC50 [2, 4]: > 5.01 µM

N[C@H]1CS(=O)(=O)c2ccc(C(=O)NCC3CCOCC3)cc2N(Cc2ccc(OC(F)F)cc2)C1=O [Example 164, (3R)-3-amino-5-{[4-(difluoromethoxy)phenyl]methyl}-N-[(oxan-4-yl)methyl]-1,1,4-trioxo-2,3,4,5-tetrahydro-1λ^6,5-benzothiazepine-7-carboxamide]
EC50 [2, 3]: > 5.01 µM | EC50 [2, 4]: > 5.01 µM

CCN[C@H]1CS(=O)(=O)c2cc(F)c(C(=O)NCCCC(F)(F)F)cc2N(Cc2ccc(Cl)cc2)C1=O [Example 182, (3R)-5-[(4-chlorophenyl)methyl]-3-(ethylamino)-8-fluoro-1,1,4-trioxo-N-(4,4,4-trifluorobutyl)-2,3,4,5-tetrahydro-1λ^6,5-benzothiazepine-7-carboxamide]
EC50 [2, 3]: 1.58 to 5.01 µM | EC50 [2, 4]: > 5.01 µM

C[C@@H]1[C@H](N)C(=O)N(Cc2ccc(Cl)cc2)c2cc(C(=O)NCCCC(F)(F)F)c(F)cc2S1(=O)=O [Example 118, (2R,3R)-3-amino-5-[(4-chlorophenyl)methyl]-8-fluoro-2-methyl-1,1,4-trioxo-N-(4,4,4-trifluorobutyl)-2,3,4,5-tetrahydro-1λ^6,5-benzothiazepine-7-carboxamide hydrochloride]
EC50 [2, 3]: < 1.58 µM | EC50 [2, 4]: 1.58 to 5.01 µM

N[C@H]1CS(=O)(=O)c2ccc(C(=O)N[C@@H]3C[C@@H]3F)cc2N(Cc2ccc(Cl)cc2)C1=O [Example 147, (3R)-3-amino-5-[(4-chlorophenyl)methyl]-N-[(1R,2S)-2-fluorocyclopropyl]-1,1,4-trioxo-2,3,4,5-tetrahydro-1λ^6,5-benzothiazepine-7-carboxamide]
EC50 [2, 3]: > 5.01 µM | EC50 [2, 4]: > 5.01 µM

N[C@H]1CS(=O)(=O)c2ccc(C(=O)NCC3CCOC3)cc2N(Cc2ccc(Cl)cc2)C1=O (stereo partly drawn) [Example 157, (3R)-3-amino-5-[(4-chlorophenyl)methyl]-1,1,4-trioxo-N-[(oxolan-3-yl)methyl]-2,3,4,5-tetrahydro-1λ^6,5-benzothiazepine-7-carboxamide]
EC50 [2, 3]: > 5.01 µM | EC50 [2, 4]: > 5.01 µM

N[C@H]1CS(=O)(=O)c2ccc(C(=O)N[C@@H]3CCOC3)cc2N(Cc2ccc(Cl)cc2)C1=O [Example 156, (3R)-3-amino-5-[(4-chlorophenyl)methyl]-1,1,4-trioxo-N-[(3R)-oxolan-3-yl]-2,3,4,5-tetrahydro-1λ^6,5-benzothiazepine-7-carboxamide]
EC50 [2, 3]: > 5.01 µM | EC50 [2, 4]: > 5.01 µM

C[C@@H](NC(=O)c1ccc2c(c1)N(Cc1ccc(Cl)cc1)C(=O)[C@@H](N)CS2(=O)=O)C1CCOCC1 [Example 166, (3R)-3-amino-5-[(4-chlorophenyl)methyl]-N-[(1R)-1-(oxan-4-yl)ethyl]-1,1,4-trioxo-2,3,4,5-tetrahydro-1λ^6,5-benzothiazepine-7-carboxamide]
EC50 [2, 3]: > 5.01 µM | EC50 [2, 4]: > 5.01 µM

COc1ccc(CN2C(=O)[C@@H](N)CS(=O)(=O)c3ccc(C(=O)N[C@@H]4CC4(F)F)cc32)cc1 [Example 161, (3R)-3-amino-N-[(1R)-2,2-difluorocyclopropyl]-5-[(4-methoxyphenyl)methyl]-1,1,4-trioxo-2,3,4,5-tetrahydro-1λ^6,5-benzothiazepine-7-carboxamide]
EC50 [2, 3]: > 5.01 µM | EC50 [2, 4]: > 5.01 µM
